Patent US20100298141A1, “SUBSTITUTED PYRIDINE N-OXIDE HERBICIDES” (E. I. DU PONT DE NEMOURS AND COMPANY, priority 2007, published 2010)

What was measured:
blackgrass = test: Test C pre-/postemergence test; type: in vivo, Alopecurus myosuroides
In short: (§1)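 Seeds were planted and treated preemergence with test chemical in a non-phytotoxic solvent mixture containing surfactant. Postemergence applications of the same formulation went onto plants 2 to 18 cm tall (1- to 4-leaf stage). A dash marks no test result.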

woolly cupgrass = test: Test C pre-/postemergence test; type: in vivo, Eriochloa villosa
In short: as §1

green foxtail = test: Test C pre-/postemergence test; type: in vivo, Setaria viridis
In short: as §1

soybean = test: Test C pre-/postemergence test; type: in vivo, Glycine max
In short: as §1

corn = test: Test C pre-/postemergence test; type: in vivo, Zea mays
In short: as §1

crabgrass = test: Test C pre-/postemergence test; type: in vivo, Digitaria sanguinalis
In short: as §1

morningglory [1] = test: Test A pre-/postemergence greenhouse test; type: in vivo, Ipomoea spp.; conditions: for Morningglory plant response rating: 0 to 100 scale
In short: (§2)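 Planting was into mixed loam soil and sand; preemergence treatment followed as a directed soil spray. Concurrently, emerged plants (one- to two-leaf, 2–10 cm) received postemergence applications of identically formulated compound (non-phytotoxic solvent, surfactant). After approximately ten days under greenhouse conditions, injury was judged by eye against untreated plants.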

Italian ryegrass = test: Test C pre-/postemergence test; type: in vivo, Lolium multiflorum
In short: as §1

[2] = system: common (oilseed) sunflower; test: Test C pre-/postemergence test; type: in vivo, Helianthus annuus; conditions: for Sunflower plant response rating: preemergence, scale 0 (no effect) to 100 (complete control)
In short: as §1

yellow nutsedge = test: Test C pre-/postemergence test; type: in vivo, Cyperus esculentus
In short: as §1

barnyardgrass = test: Test A pre-/postemergence greenhouse test; type: in vivo, Echinochloa crus-galli; conditions: for Barnyardgrass plant response rating: 0 to 100 scale
In short: as §2

wheat = test: Test C pre-/postemergence test; type: in vivo, Triticum aestivum; conditions: for Wheat plant response rating: preemergence, scale 0 (no effect) to 100 (complete control)
In short: as §1

pigweed = test: Test C pre-/postemergence test; type: in vivo, Amaranthus retroflexus
In short: as §1

morningglory [3] = test: Test C pre-/postemergence test; type: in vivo, Ipomoea coccinea
In short: as §1

cocklebur = test: Test C pre-/postemergence test; type: in vivo, Xanthium strumarium
In short: as §1

kochia = test: Test C pre-/postemergence test; type: in vivo, Kochia scoparia
In short: as §1

umbrella sedge = test: Test C flooded paddy test; type: in vivo, Cyperus difformis; conditions: Flood
In short: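 Under a constant 3 cm flood, test compounds went directly into the paddy water. Following 13 to 15 days of greenhouse growth, treated species and controls were compared by eye.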

[4] = 31 g ai/ha, Preemergence, scale 0 to 100
[5] = 62 g ai/ha, preemergence, scale 0 (no effect) to 100 (complete control)
[6] = preemergence, 125 g ai/ha, scale 0 (no effect) to 100 (complete control)
[7] = Postemergence, 125 g ai/ha, 0 is no effect, 100 is complete control
[8] = Postemergence, 500 g ai/ha, 0 is no effect, 100 is complete control
[9] = Preemergence, 125 g ai/ha, 0 no effect, 100 complete control
[10] = Preemergence, 500 g ai/ha, 0 to 100 scale where 0 is no effect and 100 is complete control

Cn1nc(C(F)(F)F)c(C[S+]([O-])c2ccc(Br)c[n+]2[O-])c1OC(F)F (racemic) [Compound 16]
98: Corn plant response rating (corn; [6]) | Crabgrass, Large plant response rating (crabgrass; [5])
10: Morningglory plant response rating (morningglory [3]; [5])
50: Blackgrass plant response rating (blackgrass; [5]) | Blackgrass plant response rating (blackgrass; [6]) | Ryegrass, Italian plant response rating (Italian ryegrass; [5]) | Sunflower plant response rating ([2]; 125 g ai/ha)
100: Plant response rating (0 to 100), Cupgrass, Woolly (woolly cupgrass; Preemergence, 250 g ai/ha) | Plant response rating (0 to 100), Foxtail, Green (green foxtail; Preemergence, 250 g ai/ha) | Plant response rating (0 to 100), Corn (corn; Preemergence, 250 g ai/ha) | Plant response rating (0 to 100), Crabgrass, Large (crabgrass; Preemergence, 250 g ai/ha) | Crabgrass, Large plant response rating (crabgrass; [6]) | Plant response rating (0 to 100), Ryegrass, Italian (Italian ryegrass; Preemergence, 250 g ai/ha) | Plant response rating (0 to 100), Nutsedge, Yellow (yellow nutsedge; Preemergence, 250 g ai/ha) | Barnyardgrass plant response rating (barnyardgrass; [8]) | Plant response rating, Barnyardgrass (barnyardgrass; [10]) | Pigweed plant response rating (pigweed; [4]) | Pigweed plant response rating (pigweed; [5]) | Plant response rating (0 to 100), Pigweed (pigweed; Preemergence, 250 g ai/ha) | Pigweed plant response rating (pigweed; [6]) | Plant response rating (0 to 100), Morningglory (morningglory [3]; Preemergence, 250 g ai/ha) | Kochia plant response rating (kochia; [5]) | Plant response rating (0 to 100), Kochia (kochia; Preemergence, 250 g ai/ha) | Kochia plant response rating (kochia; [6])
60: Soybean plant response rating (soybean; [6]) | Morningglory plant response rating (morningglory [1]; [8]) | Nutsedge, Yellow plant response rating (yellow nutsedge; [4]) | Wheat plant response rating (wheat; 125 g ai/ha)
0: Blackgrass plant response rating (blackgrass; [4]) | Soybean plant response rating (soybean; [4]) | Morningglory plant response rating (morningglory [3]; [4]) | Cocklebur plant response rating (cocklebur; [4]) | Cocklebur plant response rating (cocklebur; [5]) | Plant response rating (0 to 100), Cocklebur (cocklebur; Preemergence, 250 g ai/ha) | Cocklebur plant response rating (cocklebur; [6]) | Plant response rating, Sedge, Umbrella (umbrella sedge; 31 g ai/ha, scale 0 to 100 (0 no effect, 100 complete control)) | Plant response rating, Sedge, Umbrella (umbrella sedge; 62 g ai/ha, scale 0 to 100, 0 no effect, 100 complete control, 13 to 15 days) | Plant response rating, Sedge, Umbrella (umbrella sedge; 125 g ai/ha, scale 0 to 100, 0 no effect, 100 complete control, 13 to 15 days) | Plant response rating, Sedge, Umbrella (umbrella sedge; 250 g ai/ha, scale 0 to 100, 0 no effect, 100 complete control, 13 to 15 days)
80: Cupgrass, Woolly plant response rating (woolly cupgrass; [5]) | Plant response rating (0 to 100), Soybean (soybean; Preemergence, 250 g ai/ha) | Crabgrass, Large plant response rating (crabgrass; [4]) | Plant response rating, Morningglory (morningglory [1]; [10]) | Nutsedge, Yellow plant response rating (yellow nutsedge; [5])
70: Foxtail, Green plant response rating (green foxtail; [4]) | Foxtail, Green plant response rating (green foxtail; [5]) | Foxtail, Green plant response rating (green foxtail; [6])
40: Corn plant response rating (corn; [4])
85: Plant response rating (0 to 100), Sunflower ([2]; Preemergence, 250 g ai/ha) | Nutsedge, Yellow plant response rating (yellow nutsedge; [6])
30: Soybean plant response rating (soybean; [5]) | Morningglory plant response rating (morningglory [1]; [9]) | Ryegrass, Italian plant response rating (Italian ryegrass; [4]) | Sunflower plant response rating ([2]; 62 g ai/ha) | Wheat plant response rating (wheat; 62 g ai/ha)
20: Cupgrass, Woolly plant response rating (woolly cupgrass; [4]) | Morningglory plant response rating (morningglory [1]; [7]) | Kochia plant response rating (kochia; [4])
55: Ryegrass, Italian plant response rating (Italian ryegrass; [6])
95: Cupgrass, Woolly plant response rating (woolly cupgrass; [6]) | Corn plant response rating (corn; [5]) | Morningglory plant response rating (morningglory [3]; [6])
90: Barnyardgrass plant response rating (barnyardgrass; [7]) | Barnyardgrass plant response rating (barnyardgrass; [9]) | Plant response rating (0 to 100), Wheat (wheat; Preemergence, 250 g ai/ha)
